Experimental data as given in US20240182445A1 (ONO PHARMACEUTICAL CO., LTD., priority 2019, published 2024).

These compounds were tested against T1, human TREK-1 (Homo sapiens, UniProt O95069) (assay: TREK-1 Thallium (Tl+) flux assay, Method 1). Settings: TREK-1 Thallium (Tl+) flux assay, Method 1.
T1 construct: expressed in transfected cells
T1 sequence (O95069 1-426): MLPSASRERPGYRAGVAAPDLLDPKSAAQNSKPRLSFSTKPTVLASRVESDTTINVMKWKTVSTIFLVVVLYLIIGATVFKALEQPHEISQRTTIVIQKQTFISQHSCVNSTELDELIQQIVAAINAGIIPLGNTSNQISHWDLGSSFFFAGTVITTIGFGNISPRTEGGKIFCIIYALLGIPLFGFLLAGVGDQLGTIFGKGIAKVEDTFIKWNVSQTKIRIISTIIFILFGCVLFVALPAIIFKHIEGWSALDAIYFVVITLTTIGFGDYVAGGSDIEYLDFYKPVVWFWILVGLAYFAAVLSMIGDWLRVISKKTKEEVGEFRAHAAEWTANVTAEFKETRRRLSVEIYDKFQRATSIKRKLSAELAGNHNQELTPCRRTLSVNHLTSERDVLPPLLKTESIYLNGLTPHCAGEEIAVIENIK
Assay type: cell-based
How it was run: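 Readout: Thallos fluorescence ratio, taken 25 s post-thallium relative to the pre-thallium baseline average, then converted to % inhibition. Cells were CHO-K1 stably expressing human TREK-1, dye-loaded and exposed to test compound (vehicle 0.3% DMSO) for 10 min prior to thallium stimulation.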

SMILES	IC50 [nM]
COc1ccc(-c2cnc(NC(=O)c3c(Cl)cnn3C3CCN(C(C)=O)CC3)c(C)c2)cc1Cl [Compound 434, 1-(1-acetylpiperidin-4-yl)-4-chloro-N-(5-(3-chloro-4-methoxyphenyl)-3-methylpyridin-2-yl)-1H-pyrazole-5-carboxamide]	7430
Cc1cc(-c2cnn(-c3ccc(F)cc3)c2)cnc1NC(=O)c1c(Cl)cnn1[C@H]1CCOC1 [Compound 395, (S)-4-chloro-N-(5-(1-(4-fluorophenyl)-1H-pyrazol-4-yl)-3-methylpyridin-2-yl)-1-(tetrahydrofuran-3-yl)-1H-pyrazole-5-carboxamide]	1420
CCc1cc(-c2cnc(NC(=O)c3c(Cl)cnn3C3CCN(C(=O)OC(C)(C)C)CC3)c(C)c2)ccc1OC [Compound 408, tert-butyl 4-(4-chloro-5-((5-(3-ethyl-4-methoxyphenyl)-3-methylpyridin-2-yl)carbamoyl)-1H-pyrazol-1-yl)piperidine-1-carboxylate]	2670

Same assay, conditions: TREK-1 Thallium (Tl+) flux assay; no *^12 (Method 2) mark on these rows

SMILES	IC50 [nM]
Cn1ncc2cc(-n3ncc(Cl)c3C(=O)Nc3ncc(C#Cc4ccccc4)cc3F)ccc21 [Compound 270, 4-chloro-N-(3-fluoro-5-(phenylethynyl)pyridin-2-yl)-1-(1-methyl-1H-indazole-5-yl)-1H-pyrazole-5-carboxamide]	460
CC(C)(C#N)Cn1ncc(Cl)c1C(=O)Nc1ncc(C#Cc2ccccc2)cc1F [Compound 234, 4-chloro-1-(2-cyano-2-methylpropyl)-N-(3-fluoro-5-(phenylethynyl)pyridin-2-yl)-1H-pyrazole-5-carboxamide]	360
CC(=O)N1CCN(CCn2ncc(Cl)c2C(=O)Nc2ncc(C#Cc3ccccc3)cc2C)CC1 [Compound 303, 1-(2-(4-acetylpiperazin-1-yl)ethyl)-4-chloro-N-(3-methyl-5-(phenylethynyl)pyridin-2-yl)-1H-pyrazole-5-carboxamide]	560
Cc1cc(C#Cc2ccccc2)cnc1NC(=O)c1c(Cl)cnn1[C@H]1C[C@H](NC(=O)OC(C)(C)C)C1 [Compound 292, tert-butyl (trans-3-(4-chloro-5-((3-methyl-5-(phenylethynyl)pyridin-2-yl)carbamoyl)-1H-pyrazol-1-yl)cyclobutyl)carbamate]	520
CC(=O)N1CCC[C@H](Cn2ncc(Cl)c2C(=O)Nc2ncc(C#Cc3ccccc3)cc2F)C1 [Compound 262, (S)-1-((1-acetylpiperidin-3-yl)methyl)-4-chloro-N-(3-fluoro-5-(phenylethynyl)pyridin-2-yl)-1H-pyrazole-5-carboxamide]	430
Cc1cc(C#Cc2ccccc2)cnc1NC(=O)c1c(Cl)cnn1C1CCN(C(=O)OC(C)(C)C)C1 (stereo not shown) [Compound 307, tert-butyl 3-(4-chloro-5-((3-methyl-5-(phenylethynyl)pyridin-2-yl)carbamoyl)-1H-pyrazol-1-yl)pyrrolidine-1-carboxylate]	580
COc1c(F)cc(-c2cnc(NC(=O)c3c(Cl)cnn3C3CCN(C(=O)OC(C)(C)C)CC3)c(C)c2)cc1F [Compound 386, tert-butyl 4-(4-chloro-5-((5-(3,5-difluoro-4-methoxyphenyl)-3-methylpyridin-2-yl)carbamoyl)-1H-pyrazol-1-yl)piperidine-1-carboxylate]	890
CC(C)(C)OC(=O)N1CCCC(n2ncc(Cl)c2C(=O)Nc2ncc(C#Cc3ccccc3)cc2F)CC1 (stereo not shown) [Compound 225, tert-butyl 4-(4-chloro-5-((3-fluoro-5-(phenylethynyl)pyridin-2-yl)carbamoyl)-1H-pyrazol-1-yl)azepane-1-carboxylate]	350
Cc1cc(C#Cc2ccccc2)cc(F)c1NC(=O)c1c(Cl)cnn1C[C@@H]1CCOC1 [Compound 200, (S)-4-chloro-N-(2-fluoro-6-methyl-4-(phenylethynyl)phenyl)-1-((tetrahydrofuran-3-yl)methyl)-1H-pyrazole-5-carboxamide]	310
CC(=O)N1CCC(Cn2ncc(Cl)c2C(=O)Nc2ncc(C#Cc3ccccc3F)cc2C)CC1 [Compound 356, 1-((1-acetylpiperidin-4-yl)methyl)-4-chloro-N-(5-((2-fluorophenyl)ethynyl)-3-methylpyridin-2-yl)-1H-pyrazole-5-carboxamide]	860
Cc1cc(C#Cc2ccccc2)cnc1NC(=O)c1c(Cl)cnn1C1CCOCC1 [Compound 210, 4-chloro-N-(3-methyl-5-(phenylethynyl)pyridin-2-yl)-1-(tetrahydro-2H-pyran-4-yl)-1H-pyrazole-5-carboxamide]	320
CC(=O)N1CCC(C(C)n2ncc(Cl)c2C(=O)Nc2ncc(C#Cc3ccccc3)cc2C)CC1 (single isomer, unassigned) [Compound 197, 1-[(1R)-1-(1-acetylpiperidin-4-yl)ethyl]-4-chloro-N-[3-methyl-5-(phenylethynyl)pyridin-2-yl]-1H-pyrazole-5-carboxamide or 1-[(1S)-1-(1-acetylpiperidin-4-yl)ethyl]-4-chloro-N-[3-methyl-5-(phenylethynyl)pyridin-2-yl]-1H-pyrazole-5-carboxamide]	300

Same assay, conditions: TREK-1 Thallium (Tl+) flux assay; values without footnote *12 are Method 1

SMILES	IC50 [nM]
Cc1cc(C#Cc2cccs2)cnc1NC(=O)c1c(Cl)cnn1[C@H]1CCOC1 [Compound 89, (S)-4-chloro-N-(3-methyl-5-(thiophen-2-ylethynyl)pyridin-2-yl)-1-(tetrahydrofuran-3-yl)-1H-pyrazole-5-carboxamide]	180
Cc1cc(C#Cc2ccccc2)cnc1NC(=O)c1c(Cl)cnn1C1CN(C(=O)C2CC2)C1 [Compound 87, 4-chloro-1-(1-(cyclopropanecarbonyl)azetidin-3-yl)-N-(3-methyl-5-(phenylethynyl)pyridin-2-yl)-1H-pyrazole-5-carboxamide]	170
Cc1cc(C#Cc2ccccc2)cc(F)c1NC(=O)c1c(Cl)cnn1CC1(C#N)CC1 [Compound 127, 4-chloro-1-((1-cyanocyclopropyl)methyl)-N-(2-fluoro-6-methyl-4-(phenylethynyl)phenyl)-1H-pyrazole-5-carboxamide]	220
Cc1cc(C#Cc2ccc(F)cc2)cnc1NC(=O)c1c(Cl)cnn1CCN1CCN(C(=O)C2CC2)CC1 [Compound 96, 4-chloro-1-(2-(4-(cyclopropanecarbonyl)piperazin-1-yl)ethyl)-N-(5-((4-fluorophenyl)ethynyl)-3-methylpyridin-2-yl)-1H-pyrazole-5-carboxamide]	180
CC(=O)N1C[C@H]2C[C@H](n3ncc(Cl)c3C(=O)Nc3ncc(C#Cc4cccs4)cc3C)C[C@H]2C1 [Compound 110, 1-[(3aR,5s,6aS)-2-acetyloctahydrocyclopenta[c]pyrrol-5-yl]-4-chloro-N-{3-methyl-5-[(thiophen-2-yl)ethynyl]pyridin-2-yl}-1H-pyrazole-5-carboxamide]	200
CC(=O)N1CC(Cn2ncc(Cl)c2C(=O)Nc2ncc(C#Cc3ccccc3)cc2C)C1 [Compound 135, 1-((1-acetylazetidin-3-yl)methyl)-4-chloro-N-(3-methyl-5-(phenylethynyl)pyridin-2-yl)-1H-pyrazole-5-carboxamide]	220
N#CC1(Cn2ncc(Cl)c2C(=O)Nc2ncc(C#Cc3ccccc3)cc2F)CC1 [Compound 141, 4-chloro-1-((1-cyanocyclopropyl)methyl)-N-(3-fluoro-5-(phenylethynyl)pyridin-2-yl)-1H-pyrazole-5-carboxamide]	230
O=C(Nc1ncc(C#Cc2cccs2)cc1F)c1c(Cl)cnn1C1CCN(C(=O)C2COCCO2)CC1 (stereo not shown) [Compound 95, 1-(1-(1,4-dioxane-2-carbonyl)piperidin-4-yl)-4-chloro-N-(3-fluoro-5-(thiophen-2-ylethynyl)pyridin-2-yl)-1H-pyrazole-5-carboxamide]	180
CC(C)C(=O)N[C@H]1C[C@@H](n2ncc(Cl)c2C(=O)Nc2ncc(C#Cc3ccccc3)cc2F)C1 [Compound 124, 4-chloro-N-(3-fluoro-5-(phenylethynyl)pyridin-2-yl)-1-(cis-3-isobutyramidocyclobutyl)-1H-pyrazole-5-carboxamide]	210
O=C(Nc1ncc(C#Cc2ccccc2)cc1F)c1c(Cl)cnn1C1CCN(C(=O)C2CC2)CC1 [Compound 130, 4-chloro-1-(1-(cyclopropanecarbonyl)piperidin-4-yl)-N-(3-fluoro-5-(phenylethynyl)pyridin-2-yl)-1H-pyrazole-5-carboxamide]	220

Same assay, conditions: read-out: Tl^+ Assay % inhibition at 30 uM (Minus value indicates activation of TREK-1); at 30 uM; CHO-K1 cells stably expressing human TREK-1; minus = activation

SMILES	inhibition at 30 µM [%]
CC(=O)N1CCC(CCn2cc(Cl)c(C(=O)Nc3ncc(C#Cc4cccc(F)c4)cc3C)n2)CC1 [Compound 439, 1-(2-(1-acetylpiperidin-4-yl)ethyl)-4-chloro-N-(5-((3-fluorophenyl)ethynyl)-3-methylpyridin-2-yl)-1H-pyrazol-3-carboxamide]	-163
Cc1cc(C#Cc2cccc(F)c2)cnc1NC(=O)c1nn(CCC2CCN(C(=O)C3CC3)CC2)cc1Cl [Compound 450, 4-chloro-1-(2-(1-(cyclopropanecarbonyl)piperidin-4-yl)ethyl)-N-(5-((3-fluorophenyl)ethynyl)-3-methylpyridin-2-yl)-1H-pyrazole-3-carboxamide]	-94
Cc1cc(C#Cc2ccc(F)cc2)cnc1NC(=O)c1nn(CCC2CCN(C(=O)C(C)C)CC2)cc1Cl [Compound 446, 4-chloro-N-(5-((4-fluorophenyl)ethynyl)-3-methylpyridin-2-yl)-1-(2-(1-isobutyrylpiperidin-4-yl)ethyl)-1H-pyrazole-3-carboxamide]	-108
